{"source": "patent US20250296971A1", "about": "“GASTRIC INHIBITORY PEPTIDE RECEPTOR LIGANDS” (priority 2021, published 2025)", "target": "T1, human GIP receptor (bioGIPR) (Homo sapiens, UniProt P48546)", "T1 construct": "Biotinylate extracellular of the human GIP receptor (bioGIPR, Proteros biostructures GmbH, lot #02/2b); purchased Proteros biostructures GmbH lot #02/2b", "T1 sequence (P48546 22-138 limits assumed)": "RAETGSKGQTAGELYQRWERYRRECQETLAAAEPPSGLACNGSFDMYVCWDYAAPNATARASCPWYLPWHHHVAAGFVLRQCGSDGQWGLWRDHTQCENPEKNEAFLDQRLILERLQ", "assay": "Surface plasmon resonance (SPR) based binding assay", "details": "Single Cycle Kinetic mode, 25° C.", "how_it_was_run": "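Binding was measured at 25 °C by single-cycle kinetics against a reference flow cell, with blank-run and drift correction, after capturing biotinylated GIPR extracellular domain to ~3500 RU. Running buffer: HBST, 0.1% DMSO. A 1:1 Langmuir model gave kinetic rates, KD, t1/2 and pKD.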", "note": "*1 amine or outer side, *2 acyl side, *3 side chain or, on linkers, in order; H or OH if unused. Where a SMILES comes first, the peptide text is derived from it. Bridges are numbered along the chain shown (N, C = ends). [ ]: non-standard residue; d: D form. The star is where a group is joined. NH(1-deoxy-D-glucityl) = OC[C@@H](O)[C@@H](O)[C@H](O)[C@@H](O)CN*; DOTA = O=C(O)CN1CCN(CC(=O)O)CCN(CC(=O)*)CCN(CC(=O)O)CC1; Trp(5-Cl) = N[C@@H](Cc1c[nH]c2ccc(Cl)cc12)C(=O)O; Pyridine(2,6-diCH2) = c1cc(C[*:1])nc(C[*:2])c1; Pro(4R-NH2) = N[C@H]1CN[C@H](C(=O)O)C1; Glutaryl = O=C(CCCC(=O)[*:2])[*:1]; X1 = O=C(CN1CCC(N[*:1])CC1)[*:2]; Api = NC1(C(=O)O)CCNCC1", "data": [{"smiles": "CC[C@H](C)[C@@H]1NC(=O)[C@H](CC(C)C)NC(=O)C2(CCN(C(=O)CN3CCN(CC(=O)O)CCN(CC(=O)O)CCN(CC(=O)O)CC3)CC2)NC(=O)[C@@H](NC(=O)[C@@H](CC(C)C)NC(=O)[C@H](CCC(=O)O)NC(=O)[C@@H]2C[C@@H](N)CN2C(=O)[C@H](Cc2c[nH]c3ccc(Cl)cc23)NC(=O)[C@H](Cc2c[nH]c3ccccc23)NC(=O)[C@H](CC(=O)O)NC(=O)CCCC(=O)NC[C@H](O)[C@@H](O)[C@H](O)[C@H](O)CO)CSCc2cccc(n2)CSC[C@@H](C(=O)NC2CCN(CC(=O)N[C@H](CCC(=O)NC[C@H](O)[C@@H](O)[C@H](O)[C@H](O)CO)C(N)=O)CC2)NC1=O", "note": "[GIP-001, AGLU-Glutar-Asp-Trp-5Clw-Tap-Glu-leu-[Cys(2Lut)-Apc(DOTA)-Leu-Ile-Cys]-APAc-glu(AGLU)-NH2] ({NH(1-deoxy-D-glucityl)-Glutaryl}-DW[Trp(5-Cl)][Pro(4R-NH2)]E[dL]C[Api](DOTA)LIC[X1][dE](NH(1-deoxy-D-glucityl))-NH2; linker 7-11 via Pyridine(2,6-diCH2))", "values": [{"measurement": "t1/2 Category", "setting": "SPR dissociation half-life", "value": "A (t1/2 values>15 min)"}, {"measurement": "Kd", "setting": "SPR, 1:1 Langmuir binding model, read-out: pKD Category (converted)", "value": "< 1", "unit": "nM"}]}]}
